Earlier results in patent US7276608B2, “Tetrahydroquinoline derivatives as cannabinoid receptor modulators” (Bristol-Myers Squibb Company, priority 2003, dated 2007).

Experiments:
[1] = 16 week trial period, Phase IIb
[2] = chronic administration for two weeks

Row | Structure (SMILES) | body weight in human subjects [1] | body weight [2]
1 | Cc1c(C(=O)NN2CCCCC2)nn(-c2ccc(Cl)cc2Cl)c1-c1ccc(Cl)cc1 [SR-141716] | dose-dependently reduced body weight | 
2 | Cc1c(C(=O)NN2CCCCC2)nn(-c2ccc(Cl)cc2Cl)c1-c1ccc(I)cc1 [AM-251] |  | substantial body weight reduction
